Reference: patent publication US20230017045A1, “PYRIDINE AND PYRIMIDINE CARBOXYLATE HERBICIDES AND METHODS OF USE THEREOF” (Dow AgroSciences LLC, priority 2017, published 2023)

test system: test plant species; experiment: Post-emergent herbicidal activity test (greenhouse, foliar spray, visual growth reduction); type: in vivo; conditions: post-emergence, 336 h, ALOMY: blackgrass (Alopecurus myosuroides), 140 g ai/ha, 14 days after application, read-out: Visual Growth Reduction (%) 14 Days After Application, ALOMY
Protocol: Post-emergent Test: Seeds or nutlets of the desired test plant species were planted in Sun Gro Metro-Mix® 360 planting mixture, which typically has a pH of 6.0 to 6.8 and an organic matter content of about 30 percent, in plastic pots with a surface area of 64 square centimeters. In some aspects, to ensure good germination and healthy plants, a fungicide treatment and/or other chemical or physical treatment was applied. The plants were grown for 7-21 d in a greenhouse with an approximate 15 h photoperiod which was maintained at 23-29° C. during the day and 22-28° C. during the night. Nutrients and water were added on a regular basis and supplemental lighting was provided with overhead metal halide 1000-Watt lamps as necessary. Plants were used for testing when they reached the first or second true leaf stage. A weighed amount, determined by the highest rate to be tested, of each test compound was placed in a 25 mL glass vial and was dissolved in 4 mL of a 97:3 v/v mixture of acetone and DMSO to obtain concentrated stock solutions. […] The concentrated stock solutions obtained were diluted with 20 mL of an aqueous mixture containing acetone, water, isopropyl alcohol, DMSO, […] crop oil concentrate, and X-77 surfactant in a 48.5:39:10:1.5:1.0:0.02 v/v ratio to obtain spray solutions containing the application rate. Compound requirements are based upon a 12 mL application volume at a rate of 187 liters per hectare (L/ha). Formulated compounds were applied to the plant material with an overhead Mandel track sprayer equipped with […] nozzles calibrated to deliver 187 L/ha over an application area of 0.64 square meters at a spray height of 18 inches (43 cm) above the average plant canopy height. Control plants were sprayed in the same manner with the solvent blank. The treated plants and control plants were placed in a greenhouse as described above and watered by subirrigation to prevent wash-off of the test compounds. After 14 d, the condition of the test plants as compared with that of the nontreated and control plants was determined visually and scored on a scale of 0 to 100 percent where 0 corresponds to no injury and 100 corresponds to complete control. In the reporting of the results, Table A: Percent Growth Reduction Conversion Table was used.

Compound | pest or weed control at 140 g/ha [%]
COC(=O)c1nc(-c2ccc(C(F)(F)F)cc2Cl)c(C#N)cc1Cl [F3, Methyl 3-chloro-6-(2-chloro-4-(trifluoromethyl)phenyl)-5-cyanopicolinate] | 0 to 29

same assay, conditions: post-emergence, 336 h, AMARE: redroot pigweed (Amaranthus retroflexus), 140 g ai/ha, 14 days after application, read-out: Visual Growth Reduction (%) 14 Days After Application, AMARE

Compound | pest or weed control at 140 g/ha [%]
COC(=O)c1nc(-c2ccc(C(F)(F)F)cc2Cl)c(C#N)cc1Cl [F3, Methyl 3-chloro-6-(2-chloro-4-(trifluoromethyl)phenyl)-5-cyanopicolinate] | 0 to 29

same assay, conditions: post-emergence, 336 h, AVEFA: wild oat (Avena fatua), 140 g ai/ha, 14 days after application, read-out: Visual Growth Reduction (%) 14 Days After Application, AVEFA

Compound | pest or weed control at 140 g/ha [%]
COC(=O)c1nc(-c2ccc(C(F)(F)F)cc2Cl)c(C#N)cc1Cl [F3, Methyl 3-chloro-6-(2-chloro-4-(trifluoromethyl)phenyl)-5-cyanopicolinate] | 0 to 29

same assay, conditions: post-emergence, 336 h, CHEAL: lambsquarters (Chenopodium album), 140 g ai/ha, 14 days after application, read-out: Visual Growth Reduction (%) 14 Days After Application, CHEAL

Compound | pest or weed control at 140 g/ha [%]
COC(=O)c1nc(-c2ccc(C(F)(F)F)cc2Cl)c(C#N)cc1Cl [F3, Methyl 3-chloro-6-(2-chloro-4-(trifluoromethyl)phenyl)-5-cyanopicolinate] | 75 to 84

same assay, conditions: post-emergence, 336 h, CIRAR: canada thistle (Cirsium arvense), 140 g ai/ha, 14 days after application, read-out: Visual Growth Reduction (%) 14 Days After Application, CIRAR

Compound | pest or weed control at 140 g/ha [%]
COC(=O)c1nc(-c2ccc(C(F)(F)F)cc2Cl)c(C#N)cc1Cl [F3, Methyl 3-chloro-6-(2-chloro-4-(trifluoromethyl)phenyl)-5-cyanopicolinate] | 0 to 29

same assay, conditions: post-emergence, 336 h, CYPES: yellow nutsedge (Cyperus esculentus), 140 g ai/ha, 14 days after application, read-out: Visual Growth Reduction (%) 14 Days After Application, CYPES

Compound | pest or weed control at 140 g/ha [%]
COC(=O)c1nc(-c2ccc(C(F)(F)F)cc2Cl)c(C#N)cc1Cl [F3, Methyl 3-chloro-6-(2-chloro-4-(trifluoromethyl)phenyl)-5-cyanopicolinate] | 0 to 29

same assay, conditions: post-emergence, 336 h, DIGSA: crabgrass (Digitaria sanguinalis), 140 g ai/ha, 14 days after application, read-out: Visual Growth Reduction (%) 14 Days After Application, DIGSA

Compound | pest or weed control at 140 g/ha [%]
COC(=O)c1nc(-c2ccc(C(F)(F)F)cc2Cl)c(C#N)cc1Cl [F3, Methyl 3-chloro-6-(2-chloro-4-(trifluoromethyl)phenyl)-5-cyanopicolinate] | 60 to 74

same assay, conditions: post-emergence, 336 h, barnyardgrass (Echinochloa crus-galli), 14 Days After Application, 140 g ai/ha, read-out: Visual Growth Reduction (%) ECHCG

Compound | pest or weed control at 140 g/ha [%]
COC(=O)c1nc(-c2ccc(C(F)(F)F)cc2Cl)c(C#N)cc1Cl [F3, Methyl 3-chloro-6-(2-chloro-4-(trifluoromethyl)phenyl)-5-cyanopicolinate] | 0 to 29

same assay, conditions: post-emergence, 336 h, common chickweed (Stellaria media), 14 Days After Application, 140 g ai/ha, read-out: Visual Growth Reduction (%) STEME

Compound | pest or weed control at 140 g/ha [%]
COC(=O)c1nc(-c2ccc(C(F)(F)F)cc2Cl)c(C#N)cc1Cl [F3, Methyl 3-chloro-6-(2-chloro-4-(trifluoromethyl)phenyl)-5-cyanopicolinate] | 0 to 29

same assay, conditions: post-emergence, 336 h, giant foxtail (Setaria faberi), 14 Days After Application, 140 g ai/ha, read-out: Visual Growth Reduction (%) SETFA

Compound | pest or weed control at 140 g/ha [%]
COC(=O)c1nc(-c2ccc(C(F)(F)F)cc2Cl)c(C#N)cc1Cl [F3, Methyl 3-chloro-6-(2-chloro-4-(trifluoromethyl)phenyl)-5-cyanopicolinate] | 0 to 29

same assay, conditions: post-emergence, 336 h, ivy-leaf morning glory (Ipomoea hederacea), 14 Days After Application, 140 g ai/ha, read-out: Visual Growth Reduction (%) IPOHE

Compound | pest or weed control at 140 g/ha [%]
COC(=O)c1nc(-c2ccc(C(F)(F)F)cc2Cl)c(C#N)cc1Cl [F3, Methyl 3-chloro-6-(2-chloro-4-(trifluoromethyl)phenyl)-5-cyanopicolinate] | 60 to 74

same assay, conditions: post-emergence, 336 h, johnsongrass (Sorghum vulgare), 14 Days After Application, 140 g ai/ha, read-out: Visual Growth Reduction (%) SORVU

Compound | pest or weed control at 140 g/ha [%]
COC(=O)c1nc(-c2ccc(C(F)(F)F)cc2Cl)c(C#N)cc1Cl [F3, Methyl 3-chloro-6-(2-chloro-4-(trifluoromethyl)phenyl)-5-cyanopicolinate] | 0 to 29

same assay, conditions: post-emergence, 336 h, kochia (Bassia scoparia), 14 Days After Application, 140 g ai/ha, read-out: Visual Growth Reduction (%) KCHSC

Compound | pest or weed control at 140 g/ha [%]
COC(=O)c1nc(-c2ccc(C(F)(F)F)cc2Cl)c(C#N)cc1Cl [F3, Methyl 3-chloro-6-(2-chloro-4-(trifluoromethyl)phenyl)-5-cyanopicolinate] | 0 to 29

same assay, conditions: post-emergence, 336 h, rice (Oryza sativa), 14 Days After Application, 140 g ai/ha, read-out: Visual Growth Reduction (%) ORYSA

Compound | pest or weed control at 140 g/ha [%]
COC(=O)c1nc(-c2ccc(C(F)(F)F)cc2Cl)c(C#N)cc1Cl [F3, Methyl 3-chloro-6-(2-chloro-4-(trifluoromethyl)phenyl)-5-cyanopicolinate] | 0 to 29

same assay, conditions: post-emergence, 336 h, wheat, spring (Triticum aestivum), 14 Days After Application, 140 g ai/ha, read-out: Visual Growth Reduction (%) TRZAS

Compound | pest or weed control at 140 g/ha [%]
COC(=O)c1nc(-c2ccc(C(F)(F)F)cc2Cl)c(C#N)cc1Cl [F3, Methyl 3-chloro-6-(2-chloro-4-(trifluoromethyl)phenyl)-5-cyanopicolinate] | 0 to 29
